Laboratory results published in US9096608B2, “Pharmaceutically active pyrazolo-triazine derivatives” (LEAD DISCOVERY CENTER GMBH, priority 2012, dated 2015).
Where two headings read alike, the source gives them in different places.

Tests used:
Assay type in all cases: biochemical
CDK2/CycA = target: T1, CDK2/CycA (Homo sapiens, UniProt P24941); assay: CDK2 Enzymatic Activity Assay (Lance Kinase Activity Assay, FRET); details: for CDK2 IC50 range class: Table 5B, symbols per IC50 ranges of b615
T1 construct: purchased Proqinase
Experimental: This protocol describes how the Lance Kinase Activity Assay was performed to determine IC50 values of compounds of general formula (I) against CDK/Cyclin complexes. The principle behind this enzymatic assay is based upon the phosphorylation of the Ulight-Peptide Substrat. It is detected by using a specific EU-labeled anti-phospho peptide antibody.
Binding of an inhibitor to the kinase prevents phosphorylation of the ULlight-MBP Substrat, resulting in a loss of FRET.
CDK2 Enzymatic Activity Assay
The compounds of general formula (I) exemplary summarized in Table 1 were diluted from a 10 mM DMSO stock solution 1:10 in a total volume of 15 μl DMSO. This compound predilution was then serial diluted 1:3 over 8 steps in DMSO and briefly spun down. Each compound solution was now diluted 1:20 in Enzymatic Buffer (HEPES: 50 mM, pH: 7.5; MgCl2: 10 mM; EGTA: 1 mM; DTT: 2 mM; Tween-20: 0.01%), mixed thoroughly and spun down.
For positive controls, 2 μl of DMSO working solution were mixed with 6 μl CDK2/CycA/substrate working solution and 2 μl ATP working solution. Positive and negative controls were calculated from at least 8 different wells. The 384 well plates were mixed in a Teleshaker plate mixer (Beckman Coulter, Brea, Calif., USA) at 2000 rpm for 40 sec, and incubated for 1 h at room temperature before addition of 10 μl LANCE Detection Buffer (EDTA: […]; Eu-Anti-P-MBP: 4 nM) per well. Plates were mixed in a Teleshaker plate mixer (Beckman Coulter, Brea, Calif., USA) at 2000 rpm for […], followed by incubation with Detection Buffer for 1 h, and reading. […] IC50 values were determined from the sigmoidal dose response curves with the software Quattro Workflow (Quattro GmbH, Munich, Germany).

CDK7/CycH/Mat1 = target: T2, CDK7/CycH/Mat1 (Homo sapiens, UniProt P50613); assay: CDK7 Enzymatic Activity Assay (Lance Kinase Activity Assay, FRET)
T2 construct: purchased Carna
In short: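 TR-FRET (LANCE) kinase assay with ULight-MBP peptide substrate and Eu-labelled anti-phospho antibody; compounds in 8-point 1:3 series in HEPES 50 mM pH 7.5, MgCl2 10 mM, EGTA 1 mM, DTT 2 mM, 0.01% Tween-20.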

CDK9/Cyclin T1 = target: T3, CDK9/Cyclin T1 (Homo sapiens, UniProt P50750); assay: CDK9 Enzymatic Activity Assay (Lance Kinase Activity Assay, FRET); details: for CDK9: Selectivity of CDK7 inhibition over CDK9 inhibition [fold]: Table 5B, symbols per IC50 ranges of b615
T3 construct: purchased Invitrogen
In short: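 TR-FRET detection of ULight-MBP substrate phosphorylation by CDK9/cyclin T1 using a Eu-anti-phospho-MBP antibody, in 50 mM HEPES pH 7.5, 10 mM MgCl2, 1 mM EGTA, 2 mM DTT, 0.01% Tween-20. Kinase reaction 1 h at room temperature, then EDTA detection buffer for 1 h before reading.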

[1] = Table 5A, 25 μM ATP final, read-out: CDK7: IC50 [mM] for CDK7 inhibition (the above defined ranges apply)

T3 sequence (P50750 whole entry): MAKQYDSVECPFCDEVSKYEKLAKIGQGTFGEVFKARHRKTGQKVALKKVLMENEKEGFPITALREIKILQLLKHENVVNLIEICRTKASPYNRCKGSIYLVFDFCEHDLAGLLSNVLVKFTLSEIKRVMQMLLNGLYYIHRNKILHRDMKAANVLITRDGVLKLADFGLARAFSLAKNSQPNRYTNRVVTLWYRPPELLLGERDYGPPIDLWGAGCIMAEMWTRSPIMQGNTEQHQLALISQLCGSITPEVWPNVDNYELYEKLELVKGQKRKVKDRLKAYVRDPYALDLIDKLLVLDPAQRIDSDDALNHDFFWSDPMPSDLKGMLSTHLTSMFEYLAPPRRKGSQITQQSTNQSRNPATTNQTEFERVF
T3 sequence (O60563 whole entry partner): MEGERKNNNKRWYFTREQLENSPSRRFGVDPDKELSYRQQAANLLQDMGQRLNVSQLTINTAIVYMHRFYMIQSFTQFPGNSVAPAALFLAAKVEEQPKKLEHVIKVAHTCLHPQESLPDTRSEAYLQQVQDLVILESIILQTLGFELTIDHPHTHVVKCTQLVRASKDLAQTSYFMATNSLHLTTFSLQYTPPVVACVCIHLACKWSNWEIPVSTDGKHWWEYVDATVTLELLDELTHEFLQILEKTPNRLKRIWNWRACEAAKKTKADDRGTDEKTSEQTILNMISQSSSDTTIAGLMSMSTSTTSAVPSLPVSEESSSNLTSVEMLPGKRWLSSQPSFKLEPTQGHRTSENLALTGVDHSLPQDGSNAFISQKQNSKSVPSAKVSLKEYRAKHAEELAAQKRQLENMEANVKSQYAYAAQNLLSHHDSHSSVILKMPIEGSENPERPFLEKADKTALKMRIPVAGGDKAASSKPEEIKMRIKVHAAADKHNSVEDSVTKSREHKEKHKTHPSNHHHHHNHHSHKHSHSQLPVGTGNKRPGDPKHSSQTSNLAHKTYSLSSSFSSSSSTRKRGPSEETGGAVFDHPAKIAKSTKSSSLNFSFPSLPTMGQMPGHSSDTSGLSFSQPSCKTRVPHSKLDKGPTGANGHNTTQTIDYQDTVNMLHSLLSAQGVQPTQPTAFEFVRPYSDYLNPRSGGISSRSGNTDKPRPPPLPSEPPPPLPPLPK
T2 sequence (P50613 whole entry): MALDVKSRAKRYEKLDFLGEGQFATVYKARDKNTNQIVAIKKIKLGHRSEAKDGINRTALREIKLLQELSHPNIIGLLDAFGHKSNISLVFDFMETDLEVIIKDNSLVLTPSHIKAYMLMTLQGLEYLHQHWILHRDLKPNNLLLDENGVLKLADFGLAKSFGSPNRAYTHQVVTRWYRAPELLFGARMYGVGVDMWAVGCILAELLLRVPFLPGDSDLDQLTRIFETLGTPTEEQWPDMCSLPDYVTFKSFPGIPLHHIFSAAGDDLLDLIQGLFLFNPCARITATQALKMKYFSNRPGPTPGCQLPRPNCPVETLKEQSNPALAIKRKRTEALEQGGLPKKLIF
T2 sequence (P51946 whole entry partner): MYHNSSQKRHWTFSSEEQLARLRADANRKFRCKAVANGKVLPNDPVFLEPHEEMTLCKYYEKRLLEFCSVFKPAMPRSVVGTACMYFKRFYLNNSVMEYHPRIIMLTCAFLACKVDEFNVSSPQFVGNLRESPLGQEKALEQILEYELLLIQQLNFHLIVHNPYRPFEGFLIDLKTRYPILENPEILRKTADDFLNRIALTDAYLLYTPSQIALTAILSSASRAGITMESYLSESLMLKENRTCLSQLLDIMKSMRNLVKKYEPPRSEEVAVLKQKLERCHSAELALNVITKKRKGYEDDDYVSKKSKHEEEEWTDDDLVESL
T2 sequence (P51948 whole entry partner): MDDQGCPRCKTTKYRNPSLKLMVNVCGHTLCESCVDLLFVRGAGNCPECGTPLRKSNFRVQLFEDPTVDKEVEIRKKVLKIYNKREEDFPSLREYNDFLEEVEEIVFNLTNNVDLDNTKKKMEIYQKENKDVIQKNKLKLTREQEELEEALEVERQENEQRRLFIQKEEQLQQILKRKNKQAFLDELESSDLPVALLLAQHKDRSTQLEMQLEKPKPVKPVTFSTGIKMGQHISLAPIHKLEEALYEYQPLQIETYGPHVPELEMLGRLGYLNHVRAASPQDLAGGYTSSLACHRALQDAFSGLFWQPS

SMILES	CDK2 IC50 range class (CDK2/CycA)	IC50 (CDK7/CycH/Mat1; [1]) [nM]	CDK9: Selectivity of CDK7 inhibition over CDK9 inhibition [fold] (CDK9/Cyclin T1)	Selectivity CDK7 over CDK2 [fold] (CDK2/CycA; Table 6, CDK2 activity as multiple of CDK7 activity)	multiplicity of the CDK2 and CDK9 activity in terms of the CDK7 activity (CDK7/CycH/Mat1; CDK2 and CDK9 IC50 relative to CDK7 IC50, highest of the two ('up to')) [fold]	IC50 (CDK7/CycH/Mat1; Table 6, read-out: IC50 [nM] CDK7) [nM]	selectivity for CDK7 against CDK2 and CDK9 (in words) (CDK7/CycH/Mat1; comparison of the enzymatic activity assays for CDK2, CDK7 and CDK9)	Selectivity CDK7 over CDK9 [fold] (CDK9/Cyclin T1; Table 6, CDK9 activity as multiple of CDK7 activity)
COc1cccc([C@H](C)Nc2nc(OCCN3CCNCC3)nc3c(C(C)C)cnn23)c1 [(VII-bn), (S)-8-isopropyl-N-(1-(3-methoxyphenyl)ethyl)-2-(2-(piperazin-1-yl)ethoxy)pyrazolo[1,5-a][1,3,5]triazin-4-amine]	+++ (IC50>2500 nM)	> 100	+++ (IC50>2500 nM)					
COc1cccc([C@H](C)Nc2nc(OC3CNC3)nc3c(C(C)C)cnn23)c1 [(VII-bv), (S)-2-(azetidin-S-yloxy)-8-isopropyl-N-(1-(3-methoxyphenyl)ethyl)pyrazolo[1,5-a][1,3,5]triazin-4-amine]	+++ (IC50>2500 nM)	< 10	+++ (IC50>2500 nM)					
COc1cccc([C@H](C)Nc2nc(OCCN(C)S(=O)(=O)C3CCNCC3)nc3c(C(C)C)cnn23)c1 [(VII-bw), (S)-N-(2-((8-isopropyl-4-((1-(3-methoxyphenyl)ethyl)amino)pyrazolo[1,5-a][1,3,5]triazin-2-yl)oxy)ethyl)-N-methylpiperidine-4-sulfonamide]	+++ (IC50>2500 nM)	< 10	+++ (IC50>2500 nM)					
COc1cccc([C@H](C)Nc2nc(OC3COC4(CCNCC4)C3)nc3c(C(C)C)cnn23)c1 (stereo partly drawn) [(VII-bx), 2-(1-oxa-8-azaspiro[4.5]decan-3-yloxy)-8-isopropyl-N-((S)-1-(3-methoxyphenyl)ethyl)pyrazolo[1,5-a][1,3,5]triazin-4-amine]	+++ (IC50>2500 nM)	< 10	+++ (IC50>2500 nM)					
CC(C)c1cnn2c(NC(C)c3ccccc3N3CCC3)nc(O[C@@H]3CCCNC3)nc12 (stereo partly drawn) [(VII-by), N-(1-(2-(azetidin-1-yl)phenyl)ethyl)-8-isopropyl-2-((R)-piperidin-3-yloxy)pyrazolo[1,5-a][1,3,5]triazin-4-amine]	+++ (IC50>2500 nM)	< 10	+++ (IC50>2500 nM)					
CC(C)c1cnn2c(NC(C)c3ccccc3S(=O)(=O)N3CCCC3)nc(O[C@@H]3CCCNC3)nc12 (stereo partly drawn) [(VII-bz), 8-isopropyl-2-((R)-piperidin-3-yloxy)-N-(1-(2-(pyrrolidin-1-ylsulfonyl)phenyl)ethyl)pyrazolo[1,5-a][1,3,5]triazin-4-amine]	+++ (IC50>2500 nM)	< 10	+++ (IC50>2500 nM)					
CC(C)c1cnn2c(NC(C)c3ccc4[nH]ncc4c3)nc(O[C@@H]3CCCNC3)nc12 (stereo partly drawn) [(VII-ca), N-(1-(1H-indazol-5-yl)ethyl)-8-isopropyl-2-((R)-piperidin-3-yloxy)pyrazolo[1,5-a][1,3,5]triazin-4-amine]	+++ (IC50>2500 nM)	< 10	+++ (IC50>2500 nM)					
CC(C)c1cnn2c(NC(C)c3cccc4cn[nH]c34)nc(O[C@@H]3CCCNC3)nc12 (stereo partly drawn) [(VII-cb), N-(1-(1H-indazol-7-yl)ethyl)-8-isopropyl-2-((R)-piperidin-3-yloxy)pyrazolo[1,5-a][1,3,5]triazin-4-amine]	+++ (IC50>2500 nM)	< 10	+++ (IC50>2500 nM)					
CC(C)c1cnn2c(NC(C)c3cccc4ncccc34)nc(OC3CC4(CC(N)C4)C3)nc12 (centres unmarked) [(VII-cc), 2-((6-aminospiro[3.3]heptan-2-yl)oxy)-8-isopropyl-N-(1-(quinolin-5-yl)ethyl)pyrazolo[1,5-a][1,3,5]triazin-4-amine]	+++ (IC50>2500 nM)	10 to 30	+++ (IC50>2500 nM)					
CC(C)c1cnn2c(N[C@@H](C)c3ccccc3)nc(O[C@@H]3CCCNC3)nc12 [(VII-j), 8-isopropyl-N-((S)-1-phenylethyl)-2-((R)-piperidin-3-yloxy)pyrazolo[1,5-a][1,3,5]triazin-4-amine]	+++ (IC50>2500 nM)	< 10	+++ (IC50>2500 nM)	733	> 733	< 10	selectively inhibits only CDK7	598
CC(C)c1cnn2c(N[C@@H](C)c3ccccc3)nc(OC3CCC(N)CC3)nc12 (stereo partly drawn) [(VII-k), (S)-2-((4-aminocyclohexyl)oxy)-8-isopropyl-N-(1-phenylethyl)pyrazolo[1,5-a][1,3,5]triazin-4-amine]	+++ (IC50>2500 nM)	< 10	+++ (IC50>2500 nM)					
COc1cccc([C@H](C)Nc2nc(O[C@@H]3CCCNC3)nc3c(C(C)C)cnn23)c1 [(VII-r), 8-isopropyl-N-((S)-1-(3-methoxyphenyl)ethyl)-2-((R)-piperidin-3-yloxy)pyrazolo[1,5-a][1,3,5]triazin-4-amine]	+++ (IC50>2500 nM)	< 10	+++ (IC50>2500 nM)					
COc1cccc([C@H](C)Nc2nc(NCCN)nc3c(C(C)C)cnn23)c1 [(VIII-V), (S)-N2-(2-aminoethyl)-8-isopropyl-N4-(1-(3-methoxyphenyl)ethyl)pyrazolo[1,5-a][1,3,5]triazine-2,4-diamine]	+++ (IC50>2500 nM)	> 100	+++ (IC50>2500 nM)					
COc1cccc([C@H](C)Nc2nc(N(C)CCCN3CCCCC3)nc3c(C(C)C)cnn23)c1 [(VIII-X), (S)-8-isopropyl-N4-(1-(3-methoxyphenyl)ethyl)-N2-methyl-N2-(3-(piperidin-1-yl)propyl)pyrazolo(1,5-a][1,3,5]triazine-2,4-diamine]	+++ (IC50>2500 nM)	> 100	+++ (IC50>2500 nM)					
COc1cccc([C@H](C)Nc2nc(N3CC4(CCNC4)C3)nc3c(C(C)C)cnn23)c1 [(VIII-ae), (S)-8-isopropyl-N-(1-(3-methoxyphenyl)ethyl)-2-(2,6-diazaspiro[3.4]octan-2-yl)pyrazolo[1,5-a][1,3,5]triazin-4-amine]	+++ (IC50>2500 nM)	< 10	+++ (IC50>2500 nM)					
COc1cccc([C@H](C)Nc2nc(N3CCC4(CCNC4)C3)nc3c(C(C)C)cnn23)c1 (stereo partly drawn) [(VIII-af), 8-isopropyl-N-((S)-1-(3-methoxyphenyl)ethyl)-2-(2,7-diazaspiro[4.4]nonan-2-yl)pyrazolo[1,5-a][1,3,5]triazin-4-amine]	+++ (IC50>2500 nM)	10 to 30	+++ (IC50>2500 nM)					
COc1cccc([C@H](C)Nc2nc(N3CCC34CCCNC4)nc3c(C(C)C)cnn23)c1 (stereo partly drawn) [(VIII-ag), 8-isopropyl-N-((S)-1-(3-methoxyphenyl)ethyl)-2-(1,6-diazaspiro[3.5]nonan-1-yl)pyrazolo[1,5-a][1,3,5]triazin-4-amine]	+++ (IC50>2500 nM)	10 to 30	+++ (IC50>2500 nM)					
